Here are results for nine compounds from US20100136024A1, “Selective Inhibition of Histone Deacetylase 6 for Ocular Neuroprotection or for Treatment or Control of Glaucoma” (priority 2008, published 2010).

The target of assay [1] is T1, HDAC6 (Homo sapiens, UniProt Q9UBN7).
T1 sequence (Q9UBN7 1-1215): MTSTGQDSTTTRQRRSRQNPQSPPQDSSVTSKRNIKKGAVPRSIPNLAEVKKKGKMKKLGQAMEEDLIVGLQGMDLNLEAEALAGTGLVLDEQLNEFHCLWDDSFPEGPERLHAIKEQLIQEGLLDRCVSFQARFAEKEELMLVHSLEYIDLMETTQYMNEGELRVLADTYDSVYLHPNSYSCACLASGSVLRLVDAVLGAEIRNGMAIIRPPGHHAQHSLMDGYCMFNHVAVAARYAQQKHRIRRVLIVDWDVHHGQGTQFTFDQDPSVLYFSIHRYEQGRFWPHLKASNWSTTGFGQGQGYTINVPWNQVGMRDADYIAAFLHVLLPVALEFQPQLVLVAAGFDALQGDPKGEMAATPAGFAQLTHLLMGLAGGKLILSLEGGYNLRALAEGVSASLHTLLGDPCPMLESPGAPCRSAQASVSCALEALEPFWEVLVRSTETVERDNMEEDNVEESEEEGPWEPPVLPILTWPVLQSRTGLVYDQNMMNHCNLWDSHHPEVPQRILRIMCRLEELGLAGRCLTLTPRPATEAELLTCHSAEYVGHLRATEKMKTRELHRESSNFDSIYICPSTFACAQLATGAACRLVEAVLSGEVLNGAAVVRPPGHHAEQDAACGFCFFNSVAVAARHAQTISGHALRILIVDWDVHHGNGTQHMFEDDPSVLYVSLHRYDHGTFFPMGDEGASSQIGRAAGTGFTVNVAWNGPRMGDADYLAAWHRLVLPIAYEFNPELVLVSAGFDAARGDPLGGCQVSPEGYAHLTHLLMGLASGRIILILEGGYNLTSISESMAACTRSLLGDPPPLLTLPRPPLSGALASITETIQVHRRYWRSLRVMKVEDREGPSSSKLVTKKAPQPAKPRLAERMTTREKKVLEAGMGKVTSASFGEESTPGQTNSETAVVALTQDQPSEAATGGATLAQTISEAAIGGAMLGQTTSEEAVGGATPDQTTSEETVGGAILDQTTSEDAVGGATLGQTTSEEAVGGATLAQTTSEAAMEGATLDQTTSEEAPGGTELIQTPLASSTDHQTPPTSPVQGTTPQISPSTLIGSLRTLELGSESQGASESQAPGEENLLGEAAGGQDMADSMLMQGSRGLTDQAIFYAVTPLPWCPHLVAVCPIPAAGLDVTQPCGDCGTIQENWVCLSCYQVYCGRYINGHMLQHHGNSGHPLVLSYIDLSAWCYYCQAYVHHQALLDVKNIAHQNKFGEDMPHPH
Conditions: '853 Patent FIG. 3; read-out: Inhibiting Concentration IC50 for HDAC6; cited from earlier work.

A further assay concerns the target HDAC1 (Homo sapiens, UniProt Q13547). Conditions: '853 Patent FIG. 3; read-out: Inhibiting Concentration IC50 for HDAC1; cited from earlier work.
The target in assay [2] is T1, HDAC6. Kind of assay: HDAC6 inhibition and selectivity, '853 Patent. The format is biochemical. Conditions: worked out from the IC50 of '853 Patent FIG. 3. The source says:
Id., col. 114, lines 64-65. […] Id., col. 115, lines 37-38. […] Id., col. 137.
The '853 Patent provides, in its FIG. 3, the following data regarding the HDAC6 selective activity of compound 10, in comparison with other preferred but non-selective inhibitors of HDAC1 and HDAC6, i.e., compounds 8 and 9: […]

Assay [3] addresses T1, HDAC6. Conditions: Itoh et al. enzyme assay; cited from earlier work.
Assay [4] concerns HDAC6-mediated α-tubulin deacetylation. Particulars: Haggarty et al.; cited from earlier work.
The test system of a further assay is A549 cells. Conditions: cited from earlier work.
The subject of assay [5] is histone acetylation, gene-expression patterns, cell-cycle progression. Conditions: Haggarty et al.; cited from earlier work.

SMILES strings stand for the structures. Where two headings read alike, the source gives them in different places.

HDAC1, sequence (Q13547 whole entry, species assumed): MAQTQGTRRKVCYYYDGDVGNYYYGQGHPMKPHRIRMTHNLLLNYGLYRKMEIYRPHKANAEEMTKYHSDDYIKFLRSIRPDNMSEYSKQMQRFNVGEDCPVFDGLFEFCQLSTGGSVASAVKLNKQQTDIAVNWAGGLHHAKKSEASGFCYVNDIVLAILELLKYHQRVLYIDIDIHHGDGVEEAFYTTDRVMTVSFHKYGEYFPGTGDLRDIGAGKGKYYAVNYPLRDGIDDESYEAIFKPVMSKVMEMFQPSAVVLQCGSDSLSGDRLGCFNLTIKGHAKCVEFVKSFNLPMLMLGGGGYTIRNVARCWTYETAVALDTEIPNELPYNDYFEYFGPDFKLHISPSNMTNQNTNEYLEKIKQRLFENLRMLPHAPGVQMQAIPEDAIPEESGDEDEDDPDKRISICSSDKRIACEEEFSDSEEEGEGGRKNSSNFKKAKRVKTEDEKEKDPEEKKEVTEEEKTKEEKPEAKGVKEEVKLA

As to `O=C(CCCC(=O)NCc1ccccc1)NO` [Compound 10], the IC50 on HDAC6 [1] was 380 ± 40 nM; at HDAC1, 1500 ± 500 nM. Besides, at HDAC6 [2], the “times more selective for HDAC6 than HDAC1” value is listed as “about four”.
Turning to `CC(C)(C)OC(=O)N[C@@H](CCCCCS)C(=O)Nc1cccc(-c2ccccc2)c1` [Compound 13a], on HDAC6 [3], the IC50 was 54 nM, the “selectivity HDAC1/HDAC6 (HDAC1 IC50/HDAC6 IC50)” value (shortened to “selectivity HDAC1/HDAC6”) is on record as 1.6 and the “selectivity HDAC4/HDAC6 (HDAC4 IC50/HDAC6 IC50)” value (“selectivity HDAC4/HDAC6” for short) is recorded as 1.0.
With `CC(C)(C)OC(=O)N[C@@H](CCCCCS)C(=O)Nc1cnc2ccccc2c1` [Compound 15a], at HDAC6 [3], the IC50 is 32 nM, the “selectivity HDAC1/HDAC6” value is recorded as 1.6 and the “selectivity HDAC4/HDAC6” value is 1.0.
Take `CC(C)(C)OC(=O)N[C@@H](CCCCCS)C(=O)NC1CCCC1` [Compound 16a, (S)-tert-butyl 1-(cyclopentylamino)-7-mercapto-1-oxoheptan-2-ylcarbamate]: on HDAC6 [3], the “selectivity HDAC1/HDAC6” value is 42 and the “selectivity HDAC4/HDAC6” value is given as 36.
With `CC(C)(C)OC(=O)N[C@@H](CCCCCS)C(=O)NC1CCCCC1` [Compound 17a, (S)-tert-butyl 1-(cyclohexylamino)-7-mercapto-1-oxoheptan-2-ylcarbamate], on HDAC6 [3], the “selectivity HDAC1/HDAC6” value was 35 and the “selectivity HDAC4/HDAC6” value was 32.
Take `CC(C)(C)OC(=O)N[C@@H](CCCCCS)C(=O)NC1CCCCCC1` [Compound 18a, (S)-tert-butyl 1-(cycloheptylamino)-7-mercapto-1-oxoheptan-2-ylcarbamate]: on HDAC6 [3], the “selectivity HDAC1/HDAC6” value is on record as 39 and the “selectivity HDAC4/HDAC6” value was 37.
On to `CC(C)(C)NC(=O)[C@H](CCCCCS)NC(=O)OC(C)(C)C` [Compound 19a, (S)-tert-butyl 1-(tert-butylamino)-7-mercapto-1-oxoheptan-2-ylcarbamate], for which, at HDAC6 [3], the IC50 is 71 nM, the “selectivity HDAC1/HDAC6” value is reported as 42 and the “selectivity HDAC4/HDAC6” value was 26.
Regarding `CC(C)(C)OC(=O)N[C@@H](CCCCCS)C(=O)NC12CC3CC(CC(C3)C1)C2` [Compound 20a, (S)-tert-butyl 1-(adamant-1-ylamino)-7-mercapto-1-oxoheptan-2-ylcarbamate], on HDAC6 [3], the IC50 was 82 nM, the “selectivity HDAC1/HDAC6” value is recorded as 46 and the “selectivity HDAC4/HDAC6” value is on record as 51.
For `O=C(CCCCCCC(=O)Nc1ccc([C@H]2O[C@@H](CSc3nc(-c4ccccc4)c(-c4ccccc4)o3)C[C@@H](c3ccc(CO)cc3)O2)cc1)NO` [tubacin], in assay [4], the “inhibition of α-tubulin deacetylation” value is “selective and reversible inhibitor”. Besides, the “effect on histone (lysine) acetylation” value in the assay on A549 cells was “no effect”. Further, the “concentration at which α-tubulin activity (acetylation) is increased” value with A549 cells (concentrations as low as) is recorded as at most 125 nM. Moreover, the “effect on level of histone acetylation, gene-expression patterns, or cell-cycle progression” value in assay [5] is reported as “does not affect”.
